Experimental data taken from patent publication US20100093642A1, “NOVEL POLYPEPTIDES” (priority 2006, published 2010).
Residues, ends and D or L forms follow the SMILES beside them. No end group written: not given here.

How the values were obtained:
[1] = test system: Salmonella enterica serovar typhimurium (ATCC 14028); experiment: Bacterial cell viability, lux luminescence and OD600, with or without LPS; format: cell-based; settings: co-incubation with 2.5 μM Aeromonas salmonicida LPS
Description: (§1) To evaluate the effect of antimicrobial peptides on the viability of bacteria in a fast and reliable manner we used the lux CDABE operon from Photorhabdus luminescens as a reporter system in gram negative test bacteria and the modified luxABCDE operon in S. aureus (Vesterlund et al. 2004). Bacterial bioluminescence is directly dependent on metabolic activity, since reduction equivalents are needed to drive light emission. Any form of interruption of bacterial cell integrity or metabolism will therefore be detected as a reduction in light emission.
(§2) For the assay we used S. aureus (RN4220), E. coli K-12 and Salmonella enterica serovar typhimurium (ATCC 14028) transformed with the respective lux-operon containing plasmids (Vesterlund et al. 2004).
(§3) For each experiment a fresh colony was picked from Luria-Bertani plates supplemented with 10 μg/ml of erythromycin in case of S. aureus and with 100 μg/ml of ampicillin in case of E. coli and S. enterica serovar Typhimurium. Each colony was suspended in 5 ml of Müller-Hinton medium with appropriate antibiotics. The culture was incubated over night at 37° C. in a shaking incubator. The next morning 0.5 ml of this culture was transferred to 30 ml fresh MH medium in an Erlenmeyer-flask supplemented with the respective antibiotic. The flask was incubated (200 rpm shaking; 37° C.) until an OD600 of 0.5-0.8 was reached. The culture was then diluted to an OD600 of about 0.02-0.03 before transfer to the 96 well opaque plates with optical bottom (Packard ViewPlate) used for the assay.
The synthesized peptides were dissolved in water and aliquots frozen at −18° C. until use. Twofold dilutions of test peptides (final concentrations ranging from 0.31 to 80 μM) were directly prepared in 96 well microtiter plates in a volume of 10 μl in water. 90 μl is of indicator bacteria in MH medium were added directly to the prepared and pre-warmed (30 minutes at 37° C.) plate before starting the measurement in a Victor multiplate reader (Perkin Elmer) at 37° C. Both OD600 and luminescence in counts per second (cps) were followed over 5 hours in measuring intervals of 5 minutes. The plates where shaken before each measurement (20 sec.; 5 mm orbital shaking; 10 sec waiting). The growth curves and light emission curves were drawn and evaluated to determine the MIC for each indicator strain. The MIC was defined as the concentration of test compound causing more than 50% reduction in bioluminescence (cps) or optical density (OD600) after 5 hours, compared to the growth control. Cecropin P1 was used as positive control. The results (table 14a-b) confirm the results obtained in example 2, showing a pronounced antibacterial effect of the longest peptide fragments. […] The partial peptides P17 HC (1-20), both bromated and unbromated, inhibit growth only in higher concentrations.
A second plate with an otherwise similar setup (as described for the luminescence assay in example 3) was prepared, but with addition of Aeromonas salmonicida LPS to the peptide dilutions before pre-warming. The LPS end concentration in each well was approximately 2.5 μM.

[2] = test system: E. coli K-12; experiment: as above; format: cell-based, Escherichia coli; settings: co-incubation with 2.5 μM Aeromonas salmonicida LPS
Description: as §1, §2, §3
The synthesized peptides were dissolved in water and aliquots frozen at −18° C. until use. Twofold dilutions of test peptides (final concentrations ranging from 0.31 to 80 μM) were directly prepared in 96 well microtiter plates in a volume of 10 μl in water. 90 μl is of indicator bacteria in MH medium were added directly to the prepared and pre-warmed (30 minutes at 37° C.) plate before starting the measurement in a Victor multiplate reader (Perkin Elmer) at 37° C. Both OD600 and luminescence in counts per second (cps) were followed over 5 hours in measuring intervals of 5 minutes. The plates where shaken before each measurement (20 sec.; 5 mm orbital shaking; 10 sec waiting). The growth curves and light emission curves were drawn and evaluated to determine the MIC for each indicator strain. The MIC was defined as the concentration of test compound causing more than 50% reduction in bioluminescence (cps) or optical density (OD600) after 5 hours, compared to the growth control. Cecropin P1 was used as positive control. […]
A second plate with an otherwise similar setup (as described for the luminescence assay in example 3) was prepared, but with addition of Aeromonas salmonicida LPS to the peptide dilutions before pre-warming. […]

[3] = test system: human embryonic lung fibroblast cell line MRC-5; format: cell-based; settings: 24 h
[4] = test system: human colorectal adenocarcinoma cell line HT-29; format: cell-based; settings: 24 h

| Compound | MIC, more than 50% reduction in optical density, S. enterica, P + LPS ([1]; OD600, 5 hours) [µM] | MIC, more than 50% reduction in luminescence, S. enterica, P + LPS ([1]; luminescence (cps), 5 hours) [µM] | MIC, more than 50% reduction in optical density, E. coli, P + LPS ([2]; OD600, 5 hours) [µM] | MIC, more than 50% reduction in luminescence, E. coli, P + LPS ([2]; luminescence (cps), 5 hours) [µM] | IC50 [3] [µM] | IC50 [4] [µM] |
| --- | --- | --- | --- | --- | --- | --- |
| CC[C@H](C)[C@H](NC(=O)CNC(=O)[C@H](CO)NC(=O)[C@H](CCCCN)NC(=O)[C@@H](NC(=O)[C@H](C)NC(=O)[C@H](Cc1c[nH]cn1)NC(=O)[C@H](CO)NC(=O)[C@@H](NC(=O)[C@H](CCCCN)NC(=O)[C@H](Cc1c[nH]cn1)NC(=O)[C@H](Cc1ccccc1)NC(=O)[C@@H](NC(=O)[C@H](CCCCN)NC(=O)[C@H](CCCCN)NC(=O)[C@H](Cc1ccccc1)NC(=O)C(Cc1c[nH]c2ccc(Br)cc12)NC(=O)CN)[C@@H](C)O)C(C)C)C(C)C)C(=O)N[C@@H](Cc1c[nH]cn1)C(=O)N[C@@H](C)C(=O)O (stereo partly drawn) [P17 HC-Br (1-20)] (HELM PEPTIDE1{G.[O=C(C(Cc1c[nH]c2ccc(Br)cc12)N[*:1])[*:2]].F.K.K.T.F.H.K.V.S.H.A.V.K.S.G.I.H.A}$$$$V2.0; N-terminus and C-terminus assumed) | 10 | 10 | 40 | 20 |  |  |
| GWFKKTFHKVSHAVKSGIHAGQRGCSALGF [P17 HC] |  |  |  |  | 53 | 52 |
